From US20150133512A1, “N-ARYLTRIAZOLE COMPOUNDS AS LPAR ANTAGONISTS” (Hoffmann-La Roche Inc,, priority 2012, published 2015)

Legend:
[1] = target: human recombinant LPA1 Lysophospholipid receptor (Homo sapiens, UniProt Q92633); test: Calcium flux assay using FLIPR, LPA1 antagonist activity; type: cell-based; details: for IC50: ChemiScreen Calcium-optimized stable cell line, antagonist mode, inhibition of agonist-induced calcium flux
Experimental: (§1) Calcium Flux Assay Using Fluorometric Imaging Plate Reader (FLIPR)
Cell Culture Conditions: The ChemiScreen Calcium-optimized stable cell line containing the human recombinant LPA1 Lysophospholipid receptor was purchased from Chemicon International, Inc./Millipore. The cells were cultured in DMEM-high glucose supplemented with 10% fetal bovine serum, 2 mM glutamine, 100 U/mL penicillin/100 μg/mL streptomycin, 1× non-essential amino acids, 10 mM HEPES and 0.25 mg/mL Geneticin. Cells were harvested with trypsin-EDTA and counted using ViaCount reagent. The cell suspension volume was adjusted to 2.0×10^5 cells/mL with complete growth media. Aliquots of 50 μL were dispensed into 384 well black/clear tissue culture treated plates (BD) and the microplates were placed in a 37° C. incubator overnight. The following day plates were used in the assay.
(§2) Dye Loading and Assay: Loading Buffer (FLIPR Calcium-4, Molecular Devices) was prepared by dissolving the contents of one bottle into 100 mL Hank's Balanced Salt Solution containing 20 mM HEPES and 2.5 mM probenecid. Plates were loaded onto Biotek plate washer and growth media was removed and replaced with 20 μL of Hank's Balanced Salt Solution containing 20 mM HEPES and 2.5 mM probenecid, followed by 25 μL of Loading Buffer. The plates were then incubated for 30 minutes at 37° C.
During the incubation, test compounds were prepared by adding 90 μL of HBSS/20 mM HEPES/0.1% BSA buffer to 2 μL of serially diluted compounds. To prepare serial dilutions, 10 mM stocks of compounds were prepared in 100% DMSO.
After incubation, both the cell and “assay” plates were brought to the FLIPR and 20 μL of the diluted compounds were transferred to the cell plates by the FLIPR. Compound addition was monitored by FLIPR to detect any agonist activity of the compounds. Plates were then incubated for 30 minutes at room temperature protected from light. […] During the assay, fluorescence readings were taken simultaneously from all 384 wells of the cell plate every 1.5 seconds. Five readings were taken to establish a stable baseline, then 20 μL of sample was rapidly (30 μL/sec) and simultaneously added to each well of the cell plate. The fluorescence was continuously monitored before, during and after sample addition for a total elapsed time of 100 seconds. Responses (increase in peak fluorescence) in each well following agonist addition was determined. The initial fluorescence reading from each well, prior to ligand stimulation, was used as zero baseline value for the data from that well. The responses were expressed as % inhibition of the buffer control.

[2] = target: T1, LPA3 (Homo sapiens, UniProt Q9UBY5); test: Calcium flux assay using FLIPR, LPA3 antagonist activity; type: cell-based; details: for IC50: antagonist activity
T1 sequence (Q9UBY5 1-353): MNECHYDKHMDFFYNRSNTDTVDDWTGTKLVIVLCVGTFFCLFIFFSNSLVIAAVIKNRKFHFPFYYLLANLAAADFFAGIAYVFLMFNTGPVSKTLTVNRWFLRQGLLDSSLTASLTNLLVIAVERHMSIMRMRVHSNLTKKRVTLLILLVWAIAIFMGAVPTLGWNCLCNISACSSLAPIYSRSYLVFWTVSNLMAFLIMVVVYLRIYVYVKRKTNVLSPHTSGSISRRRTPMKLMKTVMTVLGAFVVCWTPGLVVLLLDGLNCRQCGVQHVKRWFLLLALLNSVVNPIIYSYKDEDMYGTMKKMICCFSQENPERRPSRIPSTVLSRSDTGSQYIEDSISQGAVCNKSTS
Experimental: as §1, §2
During the incubation, test compounds were prepared by adding 90 μL of HBSS/20 mM HEPES/0.1% BSA buffer to 2 μL of serially diluted compounds. To prepare serial dilutions, 10 mM stocks of compounds were prepared in 100% DMSO. The compound dilution plate was set up as follows: well #1 received 29 μL of stock compound and 31 μL DMSO; wells 2-10 received 40 μL of DMSO; mixed and transferred 20 μL of solution from well #1 into well #2; continued with 1:3 serial dilutions out 10 steps; transferred 2 μL of diluted compound into duplicate wells of 384 well “assay plate” and then added the 90 μL of buffer.
After incubation, both the cell and “assay” plates were brought to the FLIPR and 20 μL of the diluted compounds were transferred to the cell plates by the FLIPR. Compound addition was monitored by FLIPR to detect any agonist activity of the compounds. Plates were then incubated for 30 minutes at room temperature protected from light. After the incubation, plates were returned to the FLIPR and 20 μL of 4.5× concentrated agonist was added to the cell plates. During the assay, fluorescence readings were taken simultaneously from all 384 wells of the cell plate every 1.5 seconds. Five readings were taken to establish a stable baseline, then 20 μL of sample was rapidly (30 μL/sec) and simultaneously added to each well of the cell plate. The fluorescence was continuously monitored before, during and after sample addition for a total elapsed time of 100 seconds. Responses (increase in peak fluorescence) in each well following agonist addition was determined. The initial fluorescence reading from each well, prior to ligand stimulation, was used as zero baseline value for the data from that well. The responses were expressed as % inhibition of the buffer control.

Chain of human recombinant LPA1 Lysophospholipid receptor (Q92633 whole entry): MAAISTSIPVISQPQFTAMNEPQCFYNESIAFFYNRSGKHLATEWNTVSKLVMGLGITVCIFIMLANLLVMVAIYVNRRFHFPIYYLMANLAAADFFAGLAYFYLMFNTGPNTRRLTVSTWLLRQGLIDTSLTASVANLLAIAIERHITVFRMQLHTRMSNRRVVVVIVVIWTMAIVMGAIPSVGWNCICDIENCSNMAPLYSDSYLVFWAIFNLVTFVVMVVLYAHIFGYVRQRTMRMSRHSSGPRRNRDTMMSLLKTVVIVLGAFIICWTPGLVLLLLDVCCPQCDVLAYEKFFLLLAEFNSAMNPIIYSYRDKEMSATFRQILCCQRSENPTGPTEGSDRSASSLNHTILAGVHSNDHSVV

Row | Compound | IC50 [1] [µM] | IC50 [2] [µM] | inhibition at 30 µM [1] [%] | inhibition at 30 µM [2] [%]
1 | Cc1c(NC(=O)O[C@H](C)c2ccccc2)nnn1-c1ccc(-c2ccc(CC(=O)O)cc2)cc1 [Example 4, {4′-[5-Methyl-4-((R)-1-phenyl-ethoxycarbonylamino)-[1,2,3]triazol-1-yl]-biphenyl-4-yl}-acetic acid] | > 30 | > 30 |  | 
2 | Cc1nnn(-c2ccc(-c3ccc(C4(C(=O)O)CC4)cc3)cc2)c1NC(=O)O[C@@H]1CCc2ccccc21 [Example 8, 1-{4′-[5-((R)-Indan-1-yloxycarbonylamino)-4-methyl-[1,2,3]triazol-1-yl]-biphenyl-4-yl}-cyclopropanecarboxylic acid] | > 30 | > 30 |  | 
3 | Cc1nnn(-c2ccc(-c3ccc(C4(C(=O)O)CC4)cc3)cc2)c1NC(=O)O[C@H](C)C(C)C [Example 9, 1-{4′-[5-((R)-1,2-Dimethyl-propoxycarbonylamino)-4-methyl-[1,2,3]triazol-1-yl]-biphenyl-4-yl}-cyclopropanecarboxylic acid] | 0.217 | > 30 |  | 
4 | CC[C@@H](C)OC(=O)Nc1c(C)nnn1-c1ccc(-c2ccc(C3(C(=O)O)CC3)cc2)cc1 [Example 10, 1-{4′-[5-((R)-sec-Butoxycarbonylamino)-4-methyl-[1,2,3]triazol-1-yl]-biphenyl-4-yl}-cyclopropanecarboxylic acid] | 0.398 | > 30 |  | 
5 | Cc1nnn(-c2ccc(-c3ccc(C4(C(=O)O)CC4)cc3)cc2)c1NC(=O)OC(C)C1CC1 (stereo not drawn) [Example 12, 1-{4′-[5-(1-Cyclopropyl-ethoxycarbonylamino)-4-methyl-[1,2,3]triazol-1-yl]-biphenyl-4-yl}-cyclopropanecarboxylic acid] | 0.134 | > 30 |  | 
6 | Cc1nnn(-c2ccc(-c3ccc(C4(C(=O)O)CC4)cc3)cc2)c1NC(=O)OC(C)C1CCC1 (stereo not drawn) [Example 13, 1-{4′-[5-(1-Cyclobutyl-ethoxycarbonylamino)-4-methyl-[1,2,3]triazol-1-yl]-biphenyl-4-yl}-cyclopropanecarboxylic acid] | 0.161 | > 30 |  | 
7 | Cc1nnn(-c2ccc(-c3ccc(C4(C(=O)O)CC4)cc3)cc2)c1NC(=O)OC(C)(C)C [Example 14, 1-[4′-(5-tert-Butoxycarbonylamino-4-methyl-[1,2,3]triazol-1-yl)-biphenyl-4-yl]-cyclopropanecarboxylic acid] | 0.985 | > 30 |  | 
8 | CCc1nnn(-c2ccc(-c3ccc(CC(=O)O)cc3)cc2)c1NC(=O)O[C@H](C)c1ccccc1 [Example 18, {4′-[4-Ethyl-5-((R)-1-phenyl-ethoxycarbonylamino)-[1,2,3]triazol-1-yl]-biphenyl-4-yl}-acetic acid] | 1.23 | > 30 | 79.8 | 
9 | Cc1nnn(-c2ccc(-c3ccc(C4(c5nnn[nH]5)CC4)cc3)cc2)c1NC(=O)O[C@H](C)c1ccccc1 [Example 29, (R)-1-Phenyl-ethyl-1-(4′-(1-(1H-tetrazol-5-yl)cyclopropyl)biphenyl-4-yl)-4-methyl-1H-1,2,3-triazol-5-ylcarbamate] |  | > 30 |  | 

Further lines, results first:

Row | IC50 [1] [µM] | IC50 [2] [µM] | inhibition at 30 µM [1] [%] | inhibition at 30 µM [2] [%] | Compound
10 | 0.174 | > 30 |  |  | Cc1nnn(-c2ccc(-c3ccc(C4(C(=O)O)CCC4)cc3)cc2)c1NC(=O)O[C@H](C)c1ccccc1 (single isomer, unassigned) [Example 32]
11 | 0.025 | > 30 |  |  | Cc1nnn(-c2ccc(-c3ccc(C4(C(=O)O)CC4)cc3)cc2)c1NC(=O)O[C@H](C)c1ccccc1 [Example 1, 1-{4′-[4-Methyl-5-((R)-1-phenyl-ethoxycarbonylamino)-[1,2,3]triazol-1-yl]-biphenyl-4-yl}-cyclopropanecarboxylic acid]
12 | > 30 | > 30 | 40 |  | Cc1nnn(-c2ccc(-c3ccc(CC(=O)O)cc3)cc2)c1NC(=O)O[C@H](C)c1ccccc1 [Example 2, {4′-[4-Methyl-5-((R)-1-phenyl-ethoxycarbonylamino)-[1,2,3]triazol-1-yl]-biphenyl-4-yl}-acetic acid]
13 | > 30 | > 30 |  |  | Cc1c(NC(=O)O[C@H](C)c2ccccc2)nnn1-c1ccc(-c2ccc(C3(C(=O)O)CC3)cc2)cc1 [Example 3, 1-{4′-[5-Methyl-4-((R)-1-phenyl-ethoxycarbonylamino)-[1,2,3]triazol-1-yl]-biphenyl-4-yl}-cyclopropanecarboxylic acid]
14 |  | > 30 |  |  | Cc1nnn(-c2ccc(-c3ccc(C4(C(=O)O)CC4)cc3)cc2)c1NC(=O)O[C@H](C)c1ccccc1F [Example 5, 1-(4′-{5-[(R)-1-(2-Fluoro-phenyl)-ethoxycarbonylamino]-4-methyl-[1,2,3]triazol-1-yl}-biphenyl-4-yl)-cyclopropanecarboxylic acid]
15 | 0.112 | 25.9 |  | 55.2 | Cc1nnn(-c2ccc(-c3ccc(C4(C(=O)O)CC4)cc3)cc2)c1NC(=O)O[C@H](C)c1ccccc1C(F)(F)F [Example 6, 1-(4′-{4-Methyl-5-[(R)-1-(2-trifluoromethyl-phenyl)-ethoxycarbonylamino]-[1,2,3]triazol-1-yl}-biphenyl-4-yl)-cyclopropanecarboxylic acid]
16 | 0.174 | 6.86 |  |  | Cc1nnn(-c2ccc(-c3ccc(C4(C(=O)O)CC4)cc3)cc2)c1NC(=O)O[C@H](C)c1cccc(C(F)(F)F)c1 [Example 7, 1-(4′-{4-Methyl-5-[(R)-1-(3-trifluoromethyl-phenyl)-ethoxycarbonylamino]-[1,2,3]triazol-1-yl}-biphenyl-4-yl)-cyclopropanecarboxylic acid]
17 | > 30 | > 30 |  |  | Cc1nnn(-c2ccc(-c3ccc(C4(C(=O)O)CC4)cc3)cc2)c1NC(=O)OC(C)C [Example 11, 1-[4′-(5-iso-Propoxycarbonylamino-4-methyl-[1,2,3]triazol-1-yl)-biphenyl-4-yl]-cyclopropanecarboxylic acid]
18 | 0.022 |  |  | 46.3 | Cc1nnn(-c2ccc(-c3ccc(C4(C(=O)O)CC4)c(F)c3)cc2)c1NC(=O)O[C@H](C)c1ccccc1 [Example 15, 1-{3-Fluoro-4′-[4-methyl-5-((R)-1-phenyl-ethoxycarbonylamino)-[1,2,3]triazol-1-yl]-biphenyl-4-yl}-cyclopropanecarboxylic acid]
19 | 0.245 | > 30 |  |  | COc1cc(-c2ccc(C3(C(=O)O)CC3)cc2)ccc1-n1nnc(C)c1NC(=O)O[C@H](C)c1ccccc1 [Example 16, 1-{3′-Methoxy-4′-[4-methyl-5-((R)-1-phenyl-ethoxycarbonylamino)-[1,2,3]triazol-1-yl]-biphenyl-4-yl}-cyclopropanecarboxylic acid]
20 | 0.043 | 21.7 |  | 63.7 | CCc1nnn(-c2ccc(-c3ccc(C4(C(=O)O)CC4)cc3)cc2)c1NC(=O)O[C@H](C)c1ccccc1 [Example 17, 1-{4′-[4-Ethyl-5-((R)-1-phenyl-ethoxycarbonylamino)-[1,2,3]triazol-1-yl]-biphenyl-4-yl}-cyclopropanecarboxylic acid]
